In patent publication US9670147B2, “Antioxidant inflammation modulators: oleanolic acid derivatives with amino and other modifications at C-17” (REATA PHARMACEUTICALS, INC., priority 2008, dated 2017):

What was measured:
HO-1 = experiment: Nrf2 target gene induction in MDA-MB-435 cells, qPCR: HO-1; assay type: cell-based, human
Experimental: FIG. 43. Induction of HO-1. FIGS. 43A and 43B: MDA-MB-435 human melanoma cells were treated with vehicle (DMSO) or the indicated compounds and concentrations for 16 hours. HO-1 mRNA levels were quantified using qPCR and were normalized relative to a DMSO-treated sample run in parallel. Values are averages of duplicate wells. FIG. 43C: MDA-MB-435 cells were treated with vehicle (DMSO) or the indicated compounds at 400 nM for 16 hours. HO-1, TrxR1 and actin protein levels were assayed by immunoblotting. Actin served as a loading control.
(§1) FIGS. 44, 46 and 47—Induction of HO-1, TrxR1 and γ-GCS. FIGS. 44A-C, 46A-C, 47A-C: MDA-MB-435 human melanoma cells were treated with vehicle (DMSO) or the indicated compounds (400 nM) for 16 hours. HO-1, thioredoxin reductase-1 (TrxR1), and γ-glutamylcysteine synthetase (γ-GCS) mRNA levels were quantified using qPCR and were normalized relative to a DMSO-treated sample run in parallel. Values are averages of duplicate wells. FIGS. 44D, 46D, 47D: MDA-MB-435 cells were treated with vehicle (DMSO) or the indicated compounds at 400 nM for 16 hours. HO-1, TrxR1 and actin protein levels were assayed by immunoblotting.
(§2) FIG. 45. Induction of HO-1, TrxR1 and γ-GCS. FIGS. 45 A-C: MDA-MB-435 cells were treated with vehicle (DMSO) or the indicated compounds at 160 nM for 16 hours. HO-1, TrxR1, and γ-GCS mRNA levels were quantified by qPCR and were normalized relative to a DMSO-treated sample run in parallel. Values are averages of duplicate wells. FIGS. 44D, 46D, 47D: MDA-MB-435 cells were treated with vehicle (DMSO) or the indicated compounds at 160 nM for 16 hours. HO-1, TrxR1 and actin protein levels were assayed by immunoblotting.
(§3) MDA-MB-435 human melanoma cells were treated with vehicle (DMSO) or the indicated compounds and concentrations for 16 hours. HO-1, thioredoxin reductase-1 (TrxR1), γ-glutamylcysteine synthetase (γ-GCS), and ferritin heavy chain mRNA levels were quantified using qPCR and were normalized relative to a DMSO-treated sample run in parallel. Values are averages of duplicate wells. Primer sequences are as follows.

γ-GCS = experiment: Nrf2 target gene induction in MDA-MB-435 cells, qPCR: γ-GCS; assay type: cell-based, human
Experimental: as §1, §2, §3

NQO1 = experiment: Nrf2 target gene induction in MDA-MB-435 cells: NQO1; assay type: cell-based, human; settings: 250 nM
[1] = test system: IFNγ-induced NO production in RAW264.7 macrophages; experiment: Suppression of IFNγ-induced NO production (Griess reagent); assay type: cell-based, mouse; settings: 2 h pre-treatment, then 20 ng/ml IFNγ for 24 hours
Method in brief: (§4)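 Mouse RAW264.7 macrophages pre-treated 2 h with compound (nM concentrations) or DMSO, then stimulated with 20 ng/ml recombinant mouse IFNγ for 24 h. Nitrite in medium measured by Griess reagent; viability by WST-1.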

RAW264.7 macrophages = experiment: Cell viability, WST-1 reagent; assay type: cell-based, mouse; settings: 2 h pre-treatment, then 20 ng/ml IFNγ for 24 hours
Method in brief: as §4

TrxR1 = experiment: Nrf2 target gene induction in MDA-MB-435 cells, qPCR: TrxR1; assay type: cell-based, human; settings: 400 nM, 16 hours
Experimental: as §1, §2, §3

[2] = TP levels in mouse brain after feeding in diet, LC/MS; assay type: in vivo; settings: CD-1 mice, 200 or 400 mg/kg diet for 3.5 days
Experimental: FIG. 48. […] CD-1 mice were fed either 200 or 400 mg/kg diet of either TP-319 or TP-500 for 3.5 days, and TP levels in the brains of the mice were analyzed by LC/MS. The structures of TP-319 and TP-500 are shown herein.

IC50 ([1]; Mus musculus) [nM] | IC50 [1] [nM] | Molecule | HO-1 induction (HO-1; 250 nM) | γ-GCS induction (γ-GCS; 250 nM) | NQO1 induction (NQO1) | IC50 (RAW264.7 macrophages; Mus musculus) [nM] | HO-1 induction (HO-1; 400 nM, 16 hours) | TrxR1 induction (TrxR1) | γ-GCS induction (γ-GCS; 400 nM, 16 hours) | TP levels in the brains of the mice [2] | IC50 (RAW264.7 macrophages) [nM]
– | – | CC1(C)CC[C@]2(O)CC[C@]3(C)[C@H](C(=O)CC4[C@@]5(C)C=C(C#N)C(=O)C(C)(C)[C@@H]5CC[C@]43C)[C@@H]2C1 (stereo partly drawn) [Compound 63208, (4aR,6aR,6bR,8aS,12aS,12bR,14bR)-8a-hydroxy-4,4,6a,6b,11,11,14b-heptamethyl-3,13-dioxo-3,4,4a,5,6,6a,6b,7,8,8a,9,10,11,12,12a,12b,13,14,14a,14b-icosahydropicene-2-carbonitrile] | 1.1 fold induction above DMSO control | 3.2 fold induction above DMSO control | 1.7 fold induction above DMSO control | – | – | – | – | – | –
~15 | – | CC1(C)CC[C@]2(NS(C)(=O)=O)CC[C@]3(C)[C@H](C(=O)C[C@@H]4[C@@]5(C)C=C(C#N)C(=O)C(C)(C)[C@@H]5CC[C@]43C)[C@@H]2C1 [Compound 63215, N-((4aS,6aR,6bR,8aR,12aR,12bR,14aR,14bS)-11-cyano-2,2,6a,6b,9,9,12a-heptamethyl-10,14-dioxo-1,2,3,4,4a,5,6,6a,6b,7,8,8a,9,10,12a,12b,13,14,14a,14b-icosahydropicen-4a-yl)methanesulfonamide] | 1.7 fold induction above DMSO control | 3.8 fold induction above DMSO control | 1.7 fold induction above DMSO control | > 200 | 1% of induction observed for RTA 402 | 36% of induction observed for RTA 402 | 21% of induction observed for RTA 402 | – | –
– | – | CC1(C)CC[C@]2(C(=O)NCC(F)(F)F)CC[C@]3(C)[C@H](C(=O)C=C4[C@@]5(C)C=C(C#N)C(=O)C(C)(C)[C@@H]5CC[C@]43C)[C@@H]2C1 [CDDO-TFEA] | – | – | – | – | – | – | – | Higher Levels in Mouse Brain than CDDO-EA | –
– | ~25 | N-((4aS,6aR,6bR,8aR,12aR,12bR,14aR,14bS)-11-cyano-2,2,6a,6b,9,9,12a-heptamethyl-10,14-dioxo-1,2,3,4,4a,5,6,6a,6b,7,8,8a,9,10,12a,12b,13,14,14a,14b-icosahydropicen-4a-yl)-2,2,2-trifluoroethanesulfonamide [Compound 63254] | 2 fold induction above DMSO control | 3 fold induction above DMSO control | 1.7 fold induction above DMSO control | – | – | – | – | – | > 200
~30 | – | CC1(C)CC[C@]2(N)CC[C@]3(C)[C@H](C(=O)C[C@@H]4[C@@]5(C)C=C(C#N)C(=O)C(C)(C)[C@@H]5CC[C@]43C)[C@@H]2C1 [Compound 63198, (4aR,6aR,6bR,8aS,12aS,12bR,14aR,14bR)-8a-amino-4,4,6a,6b,11,11,14b-heptamethyl-3,13-dioxo-3,4,4a,5,6,6a,6b,7,8,8a,9,10,11,12,12a,12b,13,14,14a,14b-icosahydropicene-2-carbonitrile] | 1.4 fold induction above DMSO control | 2.8 fold induction above DMSO control | 1.8 fold induction above DMSO control | > 200 | 2% of induction observed for RTA 402 | 71% of induction observed for RTA 402 | – | – | –
